Assay results reported in ChEMBL document CHEMBL4825723, “Synthesis of new methoxy derivatives of trans 2,3-diaryl-2,3-dihydrobenzofurans and evaluation of their anti-inflammatory activity” (Bioorg Med Chem Lett, 2021).
The source made the active and inactive calls. The rule behind the calls is not given here.

How the values were obtained:
[1] = target: T1, Nuclear factor NF-kappa-B complex (Homo sapiens) (UniProt Q00653+P19838+Q04206); test: Inhibition of NF-kappaB in human U-937 cells assessed as reduction in translocation of p65 NF-kappaB in from cytosol to nucleus at 0.01 uM treated followed by 3 hrs LPS stimulation by Western blot analysis; type: cell-based
T1 sequence (P19838 whole entry, looked up): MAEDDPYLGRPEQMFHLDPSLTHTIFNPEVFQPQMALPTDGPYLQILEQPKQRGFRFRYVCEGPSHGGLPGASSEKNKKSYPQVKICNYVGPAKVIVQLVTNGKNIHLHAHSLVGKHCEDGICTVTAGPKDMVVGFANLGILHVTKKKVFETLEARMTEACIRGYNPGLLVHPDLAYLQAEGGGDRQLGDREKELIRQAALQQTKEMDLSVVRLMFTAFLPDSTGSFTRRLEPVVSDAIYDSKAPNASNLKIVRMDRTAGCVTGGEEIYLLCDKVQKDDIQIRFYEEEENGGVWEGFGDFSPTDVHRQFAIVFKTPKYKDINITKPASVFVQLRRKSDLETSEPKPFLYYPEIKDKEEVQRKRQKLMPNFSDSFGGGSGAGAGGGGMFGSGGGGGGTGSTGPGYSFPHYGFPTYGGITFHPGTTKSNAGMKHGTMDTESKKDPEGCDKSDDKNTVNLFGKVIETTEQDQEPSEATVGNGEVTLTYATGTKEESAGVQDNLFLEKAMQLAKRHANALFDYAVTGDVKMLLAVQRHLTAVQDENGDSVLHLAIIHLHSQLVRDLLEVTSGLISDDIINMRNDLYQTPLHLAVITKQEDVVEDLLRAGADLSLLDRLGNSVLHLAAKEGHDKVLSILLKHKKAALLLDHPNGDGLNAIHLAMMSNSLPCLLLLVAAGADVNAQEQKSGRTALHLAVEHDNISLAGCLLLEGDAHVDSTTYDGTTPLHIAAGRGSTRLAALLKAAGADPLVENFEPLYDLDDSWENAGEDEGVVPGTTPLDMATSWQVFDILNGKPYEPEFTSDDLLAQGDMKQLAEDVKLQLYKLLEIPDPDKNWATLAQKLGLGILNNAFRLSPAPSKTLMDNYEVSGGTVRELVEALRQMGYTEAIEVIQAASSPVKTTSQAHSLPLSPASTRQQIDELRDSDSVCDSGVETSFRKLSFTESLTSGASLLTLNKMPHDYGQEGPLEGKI
T1 sequence (Q00653 whole entry, looked up): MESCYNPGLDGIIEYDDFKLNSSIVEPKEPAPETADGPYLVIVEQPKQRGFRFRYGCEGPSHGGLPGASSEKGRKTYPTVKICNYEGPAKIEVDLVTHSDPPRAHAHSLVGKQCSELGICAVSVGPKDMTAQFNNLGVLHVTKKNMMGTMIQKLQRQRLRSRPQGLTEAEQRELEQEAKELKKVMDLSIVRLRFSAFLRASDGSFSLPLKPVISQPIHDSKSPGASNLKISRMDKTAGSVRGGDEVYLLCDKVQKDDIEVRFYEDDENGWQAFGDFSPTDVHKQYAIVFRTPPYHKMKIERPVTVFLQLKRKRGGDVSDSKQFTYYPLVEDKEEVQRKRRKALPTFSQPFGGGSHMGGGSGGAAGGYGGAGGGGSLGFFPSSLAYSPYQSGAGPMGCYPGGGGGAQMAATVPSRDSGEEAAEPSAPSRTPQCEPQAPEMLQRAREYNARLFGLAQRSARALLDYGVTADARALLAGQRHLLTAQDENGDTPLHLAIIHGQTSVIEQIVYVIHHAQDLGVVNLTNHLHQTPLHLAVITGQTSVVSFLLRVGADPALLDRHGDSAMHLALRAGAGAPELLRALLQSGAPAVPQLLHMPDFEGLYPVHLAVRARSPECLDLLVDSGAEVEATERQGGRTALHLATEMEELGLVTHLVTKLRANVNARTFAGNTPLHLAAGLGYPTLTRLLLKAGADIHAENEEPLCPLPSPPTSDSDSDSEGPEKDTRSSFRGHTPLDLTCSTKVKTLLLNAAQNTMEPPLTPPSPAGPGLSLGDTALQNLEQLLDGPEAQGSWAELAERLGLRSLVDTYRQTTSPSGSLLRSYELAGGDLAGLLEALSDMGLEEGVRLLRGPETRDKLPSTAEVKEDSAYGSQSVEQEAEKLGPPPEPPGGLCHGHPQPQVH
T1 sequence (Q04206 whole entry, looked up): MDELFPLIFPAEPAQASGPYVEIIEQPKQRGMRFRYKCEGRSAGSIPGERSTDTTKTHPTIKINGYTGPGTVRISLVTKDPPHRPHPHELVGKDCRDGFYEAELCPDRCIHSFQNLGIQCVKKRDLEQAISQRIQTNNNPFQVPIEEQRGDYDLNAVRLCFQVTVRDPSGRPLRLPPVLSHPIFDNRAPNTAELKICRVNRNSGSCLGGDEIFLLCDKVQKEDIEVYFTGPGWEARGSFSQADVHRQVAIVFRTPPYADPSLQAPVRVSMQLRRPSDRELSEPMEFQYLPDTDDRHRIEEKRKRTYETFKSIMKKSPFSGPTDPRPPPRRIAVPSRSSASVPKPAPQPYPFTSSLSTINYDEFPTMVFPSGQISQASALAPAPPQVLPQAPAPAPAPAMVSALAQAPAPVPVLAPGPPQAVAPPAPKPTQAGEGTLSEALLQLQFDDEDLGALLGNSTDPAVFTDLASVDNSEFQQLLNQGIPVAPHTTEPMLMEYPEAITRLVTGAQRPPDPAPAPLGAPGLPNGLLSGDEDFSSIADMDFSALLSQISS

U-937 [2] = test: Anti-inflammatory activity in human U-937 cells assessed as reduction in LPS-induced ROS production at 0.01 uM followed by LPS stimulation and measured after 24 hrs relative to control; type: functional, cell-based
U-937 [3] = test: Cytotoxicity against human U-937 cells assessed as cell viability at 0.01 uM measured after 72 hrs; type: cell-based; settings: u-937, 72 h
U-937 [4] = test: Anti-inflammatory activity in human U-937 cells assessed as reduction in LPS-induced NO production at 0.01 uM followed by LPS stimulation and measured after 24 hrs relative to control; type: functional, cell-based
[5] = target: T1, Nuclear factor NF-kappa-B complex (Homo sapiens); test: Inhibition of NF-kappaB in human U-937 cells assessed as reduction in translocation of p65 NF-kappaB in from cytosol to nucleus at 0.01 uM treated followed by 3 hrs LPS stimulation hrs by immunohistochemical staining/confocal microscopy; type: cell-based
[6] = target: T1, Nuclear factor NF-kappa-B complex (Homo sapiens); test: Inhibition of NF-kappaB in human U-937 cells assessed as reduction in LPS-induced p65 expression at 0.01 uM treated followed by 3 hrs LPS stimulation by Western blot analysis; type: cell-based
[7] = target: T1, Nuclear factor NF-kappa-B complex (Homo sapiens); test: Inhibition of NF-kappaB activation in human U-937 cells assessed as reduction in LPS-induced PGE2 production after 48 hrs; type: cell-based
[8] = target: T1, Nuclear factor NF-kappa-B complex (Homo sapiens); test: Inhibition of NF-kappaB activation in human U-937 cells assessed as reduction in LPS-induced ACLY activity after 48 hrs; type: cell-based

Row | SMILES | inhibition [1] | Activity (U-937 [2]) | Activity (U-937 [3]) | Activity (U-937 [4]) | inhibition [5] | Inhibition of LPS-induced p65 expression [6] | inhibition ([7]; concentration not given here) [%] | inhibition ([8]; concentration not given here) [%] | inhibition [7] | inhibition [8]
1 | CO[C@@]1(c2ccccc2)c2ccccc2O[C@H]1c1ccccc1 | Active | Active | Non-Toxic | Active | Active | Active |  |  |  | 
2 | COc1ccc2c(c1)[C@@H](c1ccccc1)[C@H](c1ccccc1)O2 [listing 1 of 2 here] |  |  | Non-Toxic |  |  |  |  |  |  | 
3 | COc1ccc2c(c1)[C@@H](c1ccc(Br)cc1)[C@@H](c1ccccc1)O2 | Active | Active | Non-Toxic | Active | Active | Active |  |  |  | 
4 | COc1ccc2c(c1)[C@@H](c1ccccc1)[C@H](c1ccccc1)O2 (mixture of isomers) | Active | Active |  | Active | Active | Active | 28 | 43 |  | 
5 | COc1ccc2c(c1)[C@@H](c1ccccc1)[C@H](c1ccccc1)O2 (single isomer, unassigned) | Active |  |  |  | Active | Active |  |  |  | 
6 | COc1ccc2c(c1)C(c1cc(Br)cc(Br)c1)C(c1ccccc1)O2 (stereo not given) |  |  | Non-Toxic |  |  |  |  |  |  | 
7 | COc1ccc2c(c1)[C@@H](c1ccc(Br)cc1)[C@H](c1ccccc1)O2 | Active | Active | Non-Toxic | Active | Active | Active |  |  |  | 
8 | COc1ccc2c(c1)C(c1ccccc1)C(c1ccccc1)O2 (racemic) | Active | Active |  | Active | Active | Active |  | 32 | Active | 
9 | COC1(c2ccc(Br)cc2)c2ccccc2OC1c1ccccc1 (mixture of isomers) |  |  | Toxic |  |  | Active |  |  |  | 
10 | COc1ccc2c(c1)[C@@H](c1ccccc1)[C@H](c1ccccc1)O2 [listing 2 of 2 here] | Active | Active |  | Active | Active |  |  |  | Active | Active
